Reference: patent publication US8969542B2, “HPV polyepitope constructs and uses thereof” (priority 2007, dated 2015)
Read-outs that look alike come from different tables or passages of the source. Where no end group is shown, it is not given here.

Legend:
[1] = molecular target: T1, DRB1*0401 (DR4w4) (Homo sapiens, UniProt P01903+P01911, A100K/A169T/F76Y/I96L/K127E/L162R/M171V/N62H/P40V/Q125Y/R42H/S133A/S149N/S66Y/V115G/V209L/W38E); settings: read-out: IC50 nM to purified HLA DRB1 *0401; HTL epitopes
T1 sequence (P01903 26-254 partner, other chains not shown): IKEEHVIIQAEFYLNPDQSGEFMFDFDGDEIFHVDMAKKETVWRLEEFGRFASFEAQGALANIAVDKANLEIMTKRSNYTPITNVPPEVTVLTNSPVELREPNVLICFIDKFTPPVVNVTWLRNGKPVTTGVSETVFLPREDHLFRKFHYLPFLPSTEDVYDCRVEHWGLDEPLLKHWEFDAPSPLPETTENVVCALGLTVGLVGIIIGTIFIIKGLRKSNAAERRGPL

[2] = molecular target: T2, DRB4*0101 (DRw53) (Homo sapiens, UniProt P01903+P13762, G164S); settings: read-out: IC50 nM to purified HLA DRB4 *0101; HTL epitopes
[3] = molecular target: DRB1*0101 (DR1) (Homo sapiens, UniProt P01903+P01911, A100R/D57E/F55L/F60I/F76Y/I96L/L162R/M171V/P40L/Q125E/R42F/V115G/Y59C); assay: biochemical
[4] = molecular target: DRB1*0301 (DR3) (Homo sapiens, UniProt P01903+P01911, A100K/A102G/A103R/A169T/F55Y/I96L/K41T/L162R/M171V/P40S/Q125H/Q178H/Q39Y/R42S/S66N/T106N/T262R/W38E/Y61H); assay: biochemical
DRB1*0301 (DR3), sequence (P01903 26-254, other chains not shown): as the sequence (P01903 26-254 partner, other chains not shown) above

[5] = molecular target: T1, DRB1*0401 (DR4w4); assay: biochemical
[6] = molecular target: DRB1*0404 (DR4w14) (Homo sapiens, UniProt P01903+P01911, A100R/A169T/F76Y/I96L/K127E/L162R/M171V/N62H/P40V/Q125Y/R42H/S133A/S149N/S66Y/V209L/W38E); assay: biochemical
[7] = molecular target: DRB1*0405 (DR4w15) (Homo sapiens, UniProt P01903+P01911, A100R/A169T/D86S/F76Y/I96L/K127E/L162R/M171V/N62H/P40V/Q125Y/R42H/S133A/S149N/S66Y/V115G/V209L/W38E); assay: biochemical
DRB1*0405 (DR4w15), sequence (P01903 26-254 partner, other chains not shown): as above

[8] = molecular target: DRB1*0701 (DR7) (Homo sapiens, UniProt P01903+P01911, A100R/A102G/A103Q/D57E/D86V/E43K/F76Y/K127E/L162R/M171V/P40G/Q125H/Q99D/R33Q/R42Y/R54Q/S133A/S66F/T210M/V115G/Y107V/Y59L/Y89S); assay: biochemical
[9] = molecular target: DRB1*0802 (DR8w2) (Homo sapiens, UniProt P01903+P01911, A100R/A103L/A169T/F76Y/H45Y/I96F/K41T/L162R/M171V/P40S/Q125H/Q178H/Q39Y/Q99D/R218S/R42G/S66Y/V115G/W38E); assay: biochemical
[10] = molecular target: DRB1*1101 (DR5) (Homo sapiens, UniProt P01903+P01911, A100R/A169T/A87E/I96F/K41T/L162R/M171V/P40S/Q125H/Q178H/Q39Y/Q99D/R42S/S66Y/T262R/V115G/W38E); assay: biochemical
DRB1*1101 (DR5), sequence (P01903 26-254 partner, other chains not shown): as above

[11] = molecular target: DRB1*1302 (DR6w19) (Homo sapiens, UniProt P01903+P01911, A100E/A169T/K41T/L162R/M171V/P40S/Q125H/Q178H/Q39Y/Q99D/R42S/S66N/T262R/V115G/W38E/Y61H); assay: biochemical
DRB1*1302 (DR6w19), sequence (P01903 26-254, other chains not shown): as the sequence (P01903 26-254 partner, other chains not shown) above

[12] = molecular target: DRB1*1501 (DR2w2beta-1) (Homo sapiens, UniProt P01903+P01911); assay: biochemical
[13] = molecular target: T2, DRB4*0101 (DRw53); assay: biochemical
[14] = molecular target: DRB5*0101 (DR2w2beta-2) (Homo sapiens, UniProt P01903+Q30154); assay: biochemical
[15] = molecular target: DRB1*0901 (Homo sapiens, UniProt P01903+P01911, A100R/A103E/D57H/D86V/F55Y/F60I/F76Y/I96F/K127E/L162R/M171V/P40D/Q125H/Q99R/R33Q/R42F/S133A/S66N/T210M/V115G/W38K/Y107V/Y59G/Y89S); assay: biochemical

Sequence: LQAIELQLTLETIYN (Human papillomavirus type 16) [SEQ ID 92]
- IC50 [1]: 37 nM
- IC50 [2]: 2 nM

Sequence: WKHMRLECAIYYKAR [compound 91]
- IC50 [3]: 701 nM
- IC50 [4]: 437 nM
- IC50 [5]: 245 nM
- IC50 [6]: 6860 nM
- IC50 [7]: 557 nM
- IC50 [8]: 504 nM
- IC50 [9]: 90 nM
- IC50 [10]: 2400 nM
- IC50 [11]: 248 nM
- IC50 [12]: 1390 nM
- IC50 [13]: 766 nM
- IC50 [14]: 280 nM
- IC50 [15]: 6340 nM
